Laboratory results published in PubChem BioAssay AID1033 (Sanford-Burnham Center for Chemical Genomics, 2008).
Activity calls are given as the source filed them. How the calls were made is not given here.

Molecular target: Chaperone protein DnaK (Escherichia coli (strain K12)) (UniProt P0A6Y8)
Test: E. coli DnaK SBD ligand binding – biophysical, NMR, chaperone (AID 1033)
Conditions: Purified DnaK SBD

Chain of Chaperone protein DnaK (Escherichia coli (strain K12)) (P0A6Y8 whole entry, looked up): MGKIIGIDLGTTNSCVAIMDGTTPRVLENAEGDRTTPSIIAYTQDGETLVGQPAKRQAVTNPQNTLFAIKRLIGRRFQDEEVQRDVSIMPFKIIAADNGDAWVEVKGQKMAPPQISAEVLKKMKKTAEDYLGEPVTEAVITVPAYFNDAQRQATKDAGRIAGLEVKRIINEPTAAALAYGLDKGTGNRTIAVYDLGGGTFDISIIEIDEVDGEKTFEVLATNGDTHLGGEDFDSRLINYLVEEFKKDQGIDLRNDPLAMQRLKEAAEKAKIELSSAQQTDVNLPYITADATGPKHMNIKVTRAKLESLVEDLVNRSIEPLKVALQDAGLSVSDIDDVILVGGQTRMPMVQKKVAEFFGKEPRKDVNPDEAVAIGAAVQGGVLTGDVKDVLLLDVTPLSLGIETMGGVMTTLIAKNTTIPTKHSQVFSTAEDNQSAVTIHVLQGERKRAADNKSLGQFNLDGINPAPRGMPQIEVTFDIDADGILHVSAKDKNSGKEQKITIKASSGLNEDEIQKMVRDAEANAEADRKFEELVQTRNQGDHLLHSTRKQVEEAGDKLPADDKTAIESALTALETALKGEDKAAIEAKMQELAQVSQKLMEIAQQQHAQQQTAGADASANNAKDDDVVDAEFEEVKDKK

Row | Compound | Kd
1 | Nc1cc(C(F)(F)F)ccc1N1CCOCC1 | > 4 mM (inactive)
2 | O=C(O)c1cc(=O)c2cccc(O)c2[nH]1 | > 4 mM (inactive)
3 | CC(C)NC(=S)NCc1cnn(C)c1 | > 4 mM (inactive)
4 | O=CN1CCN(C(=O)c2ccccc2Cl)CC1 | > 4 mM (inactive)
5 | COC(=O)C[C@H]1C(C)(C)C(=O)[C@@H]2CC3=C(CC[C@]4(C)C3=CC(=O)O[C@H]4c3ccoc3)C1(C)C2=O | > 4 mM (inactive)
6 | COc1ccc(CC(=O)c2ccc(O)cc2O)cc1 | > 4 mM (inactive)
7 | Cn1cnc([N+](=O)[O-])c1Sc1ncnc2nc[nH]c12 | > 4 mM (inactive)
8 | COCC(=O)Nc1ccc(F)cc1F | > 4 mM (inactive)
9 | Cn1nc(C(C)(C)C)cc1N | > 4 mM (inactive)
10 | CC(C)=CCc1c2c(c3occ(-c4ccc(O)c(O)c4)c(=O)c3c1O)C=CC(C)(C)O2 | > 4 mM (inactive)
11 | c1ccc2c(c1)[nH]c1cnccc12 | > 4 mM (inactive)
12 | O=C1CSC2=NCCCN12 | > 4 mM (inactive)
13 | O=C(O)c1cccc(N2C(=O)C3CC=CCC3C2=O)c1 (centres undefined) | > 4 mM (inactive)
14 | Nc1cc(N)nc(SCc2ccccc2)n1 | > 4 mM (inactive)
15 | O=c1[nH]oc2ccccc12 | > 4 mM (inactive)
16 | COc1ccc(-c2cc(=O)c3ccccc3o2)cc1OC | > 4 mM (inactive)
17 | CCOC(=O)c1ccc(F)c(F)c1 | > 4 mM (inactive)
18 | CCOc1ccc(C)cc1S(=O)(=O)n1ccnc1 | > 4 mM (inactive)
19 | CN1CCN(Cc2cccnc2)CC1 | > 4 mM (inactive)
20 | NC(=O)CCN1C(=O)c2ccccc2C1=O | > 4 mM (inactive)
21 | Nc1ccc(-c2csnn2)cc1 | > 4 mM (inactive)
22 | Cc1cc(C)n(C2CCS(=O)(=O)C2)n1 (centres undefined) | > 4 mM (inactive)
23 | O=C(Nc1cccc(C(F)(F)F)c1)c1cccnc1 | > 4 mM (inactive)
24 | Cc1ncc(C[n+]2csc3ccccc32)c(N)n1 | > 4 mM (inactive)
25 | O=S(=O)(c1cccc2cccnc12)N1CCOCC1 | > 4 mM (inactive)

Row | Compound | Kd
26 | CC1CCc2cc(F)ccc2N1C(=O)c1ccc(=O)[nH]n1 (centres undefined) | > 4 mM (inactive)
27 | COC(=O)c1cccs1 | > 4 mM (inactive)
28 | Nc1ccnc(C(=O)O)c1 | > 4 mM (inactive)
29 | COc1cc(C(C)=O)ccc1OCC(O)Cn1ccnc1 (centres undefined) | > 4 mM (inactive)
30 | Cc1ccc(C(=O)NCCO)c(Cl)c1 | > 4 mM (inactive)
31 | COc1ccc(N2C(=N)C(C)(C)NC2=O)cc1 | > 4 mM (inactive)
32 | O=C(O)c1ccc2c(c1)OCO2 | > 4 mM (inactive)
33 | CC1(C)CC(=O)c2sc(N)nc2C1 | > 4 mM (inactive)
34 | CSc1nn(-c2ccccc2)c(N)c1C#N | > 4 mM (inactive)
35 | CCn1cnc2cc(NCc3ccncc3)ccc21 | > 4 mM (inactive)
36 | O=c1ccc2ccccc2o1 | > 4 mM (inactive)
37 | C=C1CCC(=O)C(C)CCC2C1CC2(C)C (centres undefined) | > 4 mM (inactive)
38 | NCc1cn2ccccc2n1 | > 4 mM (inactive)
39 | c1ccc2c(c1)ncn2CCn1cnc2ccccc21 | > 4 mM (inactive)
40 | O=C(c1nc2ncccn2n1)N1CCc2ccccc2C1 | > 4 mM (inactive)
41 | Nc1cccc(NC(=O)c2cccs2)c1 | > 4 mM (inactive)
42 | O=C1CCc2ccccc2CN1 | > 4 mM (inactive)
43 | CC(=O)NC(C)C12CC3CC(CC(C(=O)O)(C3)C1)C2 (centres undefined) | > 4 mM (inactive)
44 | CN1C(=O)c2ccc(N=C3NC(=O)CS3)cc2C1=O | > 4 mM (inactive)
45 | Cc1c(C(=O)Nc2cnccn2)oc2ccccc12 | > 4 mM (inactive)
46 | O=C(NCCCSc1ncccn1)Nc1ncccn1 | > 4 mM (inactive)
47 | Cc1cc(C)nc(Nc2n[nH]c(Cc3ccccc3)n2)n1 | > 4 mM (inactive)
48 | Nc1ccc(NC(=O)c2ccco2)c(Cl)c1 | > 4 mM (inactive)
49 | CC12CN(CC#N)CC(C)(CN(CC#N)C1)C2=O | > 4 mM (inactive)
50 | O=C1CSC(=S)N1Cc1cccnc1 | > 4 mM (inactive)

Row | Compound | Kd
51 | O=C(NC1=NCCS1)c1csc2ccccc12 | > 4 mM (inactive)
52 | Cc1nn2c(-c3ccncc3)nnc2c2ccccc12 | > 4 mM (inactive)
53 | Cc1ccc(C(=O)Nc2c[nH]c(=O)[nH]c2=O)cc1 | > 4 mM (inactive)
54 | CCOc1ccccc1C(=O)NC1=NCCS1 | > 4 mM (inactive)
55 | N#Cc1ccccc1CSc1ccccn1 | > 4 mM (inactive)
56 | O=C(O)CCC(=O)Nc1nccs1 | > 4 mM (inactive)
57 | O=C(O)c1ccccc1C(=O)Nc1ccccc1 | > 4 mM (inactive)
58 | O=C(O)CCC(=O)Nc1nnc(C(F)(F)F)s1 | > 4 mM (inactive)
59 | Cc1cc(C(=O)Nc2ccc3c(c2)OCO3)cs1 | > 4 mM (inactive)
60 | O=C1CC(=O)N(c2cccc(Cl)c2)N1 | > 4 mM (inactive)
61 | Cc1ccc(S(=O)(=O)CC(=O)N2CCCC2)cc1 | > 4 mM (inactive)
62 | COc1ccc2cc3[n+](cc2c1OC)CCc1cc2c(cc1-3)OCO2 | > 4 mM (inactive)
63 | COc1cc(C)c(S(=O)(=O)N2CCN(C)CC2)cc1C | > 4 mM (inactive)
64 | COC(=O)c1cc2cc(N)ccc2s1 | > 4 mM (inactive)
65 | NCCc1nc2ccccc2[nH]1 | > 4 mM (inactive)
66 | COC(=O)c1cc(C)on1 | > 4 mM (inactive)
67 | OCCNc1nc2ccc(Cl)cc2[nH]1 | > 4 mM (inactive)
68 | CC(=O)N(c1ccccc1)C1C=CS(=O)(=O)C1 (centres undefined) | > 4 mM (inactive)
69 | O=C(O)CSCc1c(F)cccc1Cl | > 4 mM (inactive)
70 | COc1cc(O)ccc1C(C)=O | > 4 mM (inactive)
71 | Oc1cnc2ccccc2c1CN1CCOCC1 | > 4 mM (inactive)
72 | N#CCN1C(=O)c2ccccc2S1(=O)=O | > 4 mM (inactive)
73 | CCOc1ccc(N2C(=O)CCC2=O)cc1 | > 4 mM (inactive)
74 | O=C1N=c2ccccc2=C1c1[nH]c(=S)[nH]c1O | > 4 mM (inactive)
75 | Cc1scc(C(=O)Nc2ccon2)c1-c1ccccc1 | > 4 mM (inactive)

Row | Compound | Kd
76 | CCc1noc(C)c1C(=O)N1CCOCC1 | > 4 mM (inactive)
77 | COc1cccc(Oc2ccc(N)cn2)c1 | > 4 mM (inactive)
78 | CC1(C)O[C@H]2[C@H](O)C[C@](O)(C(N)=O)C[C@H]2O1 | > 4 mM (inactive)
79 | O=C(c1ccncc1)N1CCN(C(=O)c2ccncc2)CC1 | > 4 mM (inactive)
80 | COc1ccc(C2CC(=O)c3ccc(OC)cc3O2)cc1 (centres undefined) | > 4 mM (inactive)
81 | CCCc1cc2c(c(NC(C)=O)n1)c(=O)oc1ccccc12 | > 4 mM (inactive)
82 | O=C(NCc1ccccn1)c1ccccc1Cl | > 4 mM (inactive)
83 | O=C(/C(=N\O)n1cncn1)c1ccccc1Cl | > 4 mM (inactive)
84 | Cc1nc(-c2cc(C(=O)O)no2)cs1 | > 4 mM (inactive)
85 | CN1CCN(c2nc3c(c(=O)[nH]2)CCCC3)CC1 | > 4 mM (inactive)
86 | O=C(O)CCCc1nc2ccccc2s1 | > 4 mM (inactive)
87 | Fc1ccc2onc(C3CCNCC3)c2c1 | > 4 mM (inactive)
88 | COC(=O)c1cncn1C | > 4 mM (inactive)
89 | CC(O)C(=O)N/N=C/c1ccccc1 (centres undefined) | > 4 mM (inactive)
90 | O=C(NN1C(=O)CSC1=S)c1ccccc1 | > 4 mM (inactive)
91 | COc1ccc(CN2CCC(O)CC2)c(O)c1 | > 4 mM (inactive)
92 | COc1cc2c3cc1Oc1cc(ccc1O)C[C@@H]1c4c(cc(OC)c(O)c4Oc4ccc(cc4)C[C@@H]3N(C)CC2)CC[N+]1(C)C | > 4 mM (inactive)
93 | O=S(=O)(N1CCOCC1)n1nnc2ccccc21 | > 4 mM (inactive)
94 | CCCc1cc(=O)[nH]c2nnc(SCC(C)=O)n12 | > 4 mM (inactive)
95 | COc1ccc(Cc2nnc3c4cnn(C)c4ncn23)cc1 | > 4 mM (inactive)
96 | C=C(C)[C@H]1CC=C(C(=O)O)CC1 | > 4 mM (inactive)
97 | Cc1ccc(-c2nc(N)n(C(=O)c3cccnc3)n2)cc1 | > 4 mM (inactive)
98 | Cn1cccc1C(=O)NS(=O)(=O)c1ccccc1Cl | > 4 mM (inactive)
99 | O=c1cc(-c2ccccc2)oc2c(O)c(O)ccc12 | > 4 mM (inactive)
100 | O=C1C2CCCCC2C(=O)N1c1ccc(O)cc1 (centres undefined) | > 4 mM (inactive)

Row | Compound | Kd
101 | COC(=O)C(O)c1ccccc1 (centres undefined) | > 4 mM (inactive)
102 | O=C(O)C1=Cc2ccccc2OC1 | > 4 mM (inactive)
103 | OC1CCN(C(=S)NC2CC2)CC1 | > 4 mM (inactive)
104 | CNC(=O)n1ccc(C(=O)N2CCCCC2)n1 | > 4 mM (inactive)
105 | NCc1cccc2c1OCCO2 | > 4 mM (inactive)
106 | CCOc1cc(C)c(Cl)cc1S(=O)(=O)N(C)C | > 4 mM (inactive)
107 | O=C(c1cnsn1)N1CCN(c2ccccc2)CC1 | > 4 mM (inactive)
108 | CC(=O)N1CCN(C2CCSC2)CC1 (centres undefined) | > 4 mM (inactive)
109 | COc1c(C)c2c(c(O)c1C/C=C(\C)CCC(=O)O)C(=O)OC2 | > 4 mM (inactive)
110 | O=C(O)c1ccc(-c2ccccn2)s1 | > 4 mM (inactive)
111 | NS(=O)(=O)c1ccc(NC(=S)NC2CC2)cc1 | > 4 mM (inactive)
112 | NC(=O)c1cc2c(n(-c3ccccc3)c1=O)CCCC2=O | > 4 mM (inactive)
113 | CC1CC[C@]2(NC1)O[C@H]1CC3C4CC[C@H]5C[C@@H](O)CC[C@]5(C)C4CC[C@]3(C)[C@H]1[C@@H]2C (some centres undefined) | > 4 mM (inactive)
114 | CC(=O)NN1C(=O)/C(=C\c2ccc(O)cc2)SC1=S | > 4 mM (inactive)
115 | N#Cc1cn(CC(=O)N2CCCC2)c2ccccc12 | > 4 mM (inactive)
116 | CN1CCN(C(=O)Nc2cccc3ccccc23)CC1 | > 4 mM (inactive)
117 | Cc1ccccc1C(=O)Nn1cnnc1 | > 4 mM (inactive)
118 | Cc1nc2ccccc2c2c1C(=O)N(N)C2=O | > 4 mM (inactive)
119 | NC1=NC(=O)C(Cc2cccc([N+](=O)[O-])c2)S1 (centres undefined) | > 4 mM (inactive)
120 | COc1ccc(-c2coc3cc(O)ccc3c2=O)cc1 | > 4 mM (inactive)
121 | COC(=O)C1=CO[C@@H](O[C@@H]2O[C@H](CO)[C@@H](O)[C@H](O)[C@H]2O)[C@@H]2[C@@H](C)[C@@H](O)C[C@H]12 | > 4 mM (inactive)
122 | NC(=O)Nc1cccc(C(F)(F)F)c1 | > 4 mM (inactive)
123 | Nc1cc(=O)[nH]c(=S)n1CCc1ccccc1 | > 4 mM (inactive)
124 | CNC(=O)Nc1cccc(C(F)(F)F)c1 | > 4 mM (inactive)
